Laboratory results published in patent US9556145B2, “2-pyridyloxy-4-ester orexin receptor antagonists” (MERCK SHARP & DOHME CORP., priority 2012, dated 2017).

Key:
hOX1R = hOX1R (Homo sapiens, UniProt O43613); experiment: FLIPR Ca2+ Flux Assay, orexin-1 receptor; type: cell-based; conditions: CHO cells expressing the receptor; agonist 70 pM Ala-6,12 orexin-A
human orexin-2 receptor = human orexin-2 receptor (Homo sapiens (Human), UniProt O43614); experiment: FLIPR Ca2+ Flux Assay, orexin-2 receptor; type: cell-based; conditions: CHO cells expressing the receptor; agonist 70 pM Ala-6,12 orexin-A; read-out: hOX2R FLIPR IC50
Procedure: The utility of the compounds in accordance with the present invention as orexin receptor OX1R and/or OX2R antagonists may be readily determined without undue experimentation by methodology well known in the art, including the “FLIPR Ca^2+ Flux Assay” (Okumura et al., Biochem. Biophys. Res. Comm. 280:976-981, 2001). In a typical experiment the OX1 and OX2 receptor antagonistic activity of the compounds of the present invention was determined in accordance with the following experimental method. For intracellular calcium measurements, Chinese hamster ovary (CHO) cells expressing the rat orexin-1 receptor or the human orexin-2 receptor, are grown in Iscove's modified DMEM containing 2 mM L-glutamine, […], 1% hypoxanthine-thymidine supplement, 100 U/ml penicillin, 100 µg/ml streptomycin and 10% heat-inactivated fetal calf serum (FCS). The cells are seeded at 20,000 cells/well into Becton-Dickinson black 384-well clear bottom sterile plates coated with poly-D-lysine. All reagents were from GIBCO-Invitrogen Corp. The seeded plates are incubated overnight at 37° C. and 5% CO2. Ala-6,12 human orexin-A as the agonist is prepared as a 1 mM stock solution in 1% bovine serum albumin (BSA) and diluted in assay buffer (HBSS containing 20 mM HEPES, 0.1% BSA and 2.5 mM probenecid, pH7.4) for use in the assay at a final concentration of 70 pM. Test compounds are prepared as 10 mM stock solution in DMSO, then diluted in 384-well plates, first in DMSO, then assay buffer. On the day of the assay, cells are washed 3 times with 100 μl assay buffer and then incubated for 60 min (37° C., 5% CO2) in 60 μl assay buffer containing 1 μM Fluo-4AM ester, 0.02% pluronic acid, and 1% BSA. The dye loading solution is then aspirated and cells are washed 3 times with 100 μl assay buffer. 30 μl of that same buffer is left in each well. Within the Fluorescent Imaging Plate Reader (FLIPR, Molecular Devices), test compounds are added to the plate in a volume of 25 μl, incubated for 5 min and finally 25 μl of agonist is added. Fluorescence is measured for each well at 1 second intervals for 5 minutes and the height of each fluorescence peak is compared to the height of the fluorescence peak induced by 70 pM Ala-6,12 orexin-A with buffer in place of antagonist. For each antagonist, IC50 value (the concentration of compound needed to inhibit 50% of the agonist response) is determined. Alternatively, compound potency can be assessed by a radioligand binding assay (described in Bergman et. al. Bioorg. Med. Chem. Lett. 2008, 18, 1425-1430) in which the inhibition constant (Ki) is determined in membranes prepared from CHO cells expressing either the OX1 or OX2 receptor. The intrinsic orexin receptor antagonist activity of a compound which may be used in the present invention may be determined by these assays.

Sequence of human orexin-2 receptor (O43614 whole entry): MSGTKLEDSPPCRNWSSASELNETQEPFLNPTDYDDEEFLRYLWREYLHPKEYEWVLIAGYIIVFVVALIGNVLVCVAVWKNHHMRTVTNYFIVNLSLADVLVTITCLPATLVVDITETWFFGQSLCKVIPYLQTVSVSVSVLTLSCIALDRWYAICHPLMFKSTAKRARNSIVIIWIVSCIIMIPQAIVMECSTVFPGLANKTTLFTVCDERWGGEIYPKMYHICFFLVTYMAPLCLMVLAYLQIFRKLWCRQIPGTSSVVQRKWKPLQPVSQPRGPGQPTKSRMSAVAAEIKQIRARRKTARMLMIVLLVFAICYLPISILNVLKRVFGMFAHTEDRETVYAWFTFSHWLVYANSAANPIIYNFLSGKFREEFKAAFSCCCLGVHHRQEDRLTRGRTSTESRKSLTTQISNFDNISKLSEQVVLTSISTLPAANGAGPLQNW

| Compound | IC50 (hOX1R) | IC50 (human orexin-2 receptor) |
| --- | --- | --- |
| COC(=O)c1ccnc(O[C@@H]2CC[C@@H](C)N(C(=O)c3ccccc3-n3nccn3)C2)c1F [Example 8, methyl 3-fluoro-2-{[(3R,6R)-6-methyl-1-{[2-(2H-1,2,3-triazol-2-yl)phenyl]carbonyl}piperidin-3-yl]oxy}pyridine-4-carboxylate] | 1690 nM | 24.9 nM |
| COC(=O)c1ccnc(O[C@@H]2CC[C@@H](C)N(C(=O)c3ccc(OC)nc3-c3ncccn3)C2)c1 [Example 12, Methyl 2-({(3R,6R)-1-[(6-methoxy-2-pyrimidin-2-ylpyridin-3-yl)carbonyl]-6-methylpiperidin-3-yl}oxy)pyridine-4-carboxylate] | 10000 nM | 2110 nM |
| COC(=O)c1cc(O[C@@H]2CC[C@@H](C)N(C(=O)c3ccccc3-n3nccn3)C2)ncc1C(F)(F)F [Example 3, methyl 2-{[(3R,6R)-6-methyl-1-{[2-(2H-1,2,3-triazol-2-yl)phenyl]-carbonyl}piperidin-3-yl]oxy}-5-(trifluoro-methyl)pyridine-4-carboxylate] | 28 nM | 57 nM |
| COC(=O)c1cc(C)nc(O[C@@H]2CC[C@@H](C)N(C(=O)c3ccccc3-n3nccn3)C2)c1 [Example 7, methyl 2-methyl-6-{[(3R,6R)-6-methyl-1-{[2-(2H-1,2,3-triazol-2-yl)phenyl]carbonyl}piperidin-3-yl]oxy}pyridine-4-carboxylate] | 1470 nM | 82.6 nM |
| COC(=O)c1ccnc(O[C@@H]2CC[C@@H](C)N(C(=O)c3ccccc3-n3nccn3)C2)c1C(=O)OC [Example 6, dimethyl 2-{[(3R,6R)-6-methyl-1-{[2-(2H-1,2,3-triazol-2-yl)phenyl]-carbonyl}-piperidin-3-yl]oxy}pyridine-3,4-dicarboxylate] | 526 nM | 30.8 nM |
| COC(=O)c1ccnc(O[C@@H]2CC[C@@H](C)N(C(=O)c3ccc(OC)nc3-n3nccn3)C2)c1 [Example 9, methyl 2-{[(3R,6R)-1-{[6-methoxy-2-(2H-1,2,3-triazol-2-yl)pyridin-3-yl]carbonyl}-6-methylpiperidin-3-yl]oxy}pyridine-4-carboxylate] | 10000 nM | 406 nM |
| COC(=O)c1cc(O[C@@H]2CC[C@@H](C)N(C(=O)c3ccccc3-n3nccn3)C2)ncc1OC [Example 10, Methyl 5-methoxy-2-{[(3R,6R)-6-methyl-1-{[2-(2H-1,2,3-triazol-2-yl)phenyl]carbonyl}piperidin-3-yl]oxy}pyridine-4-carboxylate] | 597 nM | 96 nM |
| COC(=O)c1cc(O[C@@H]2CC[C@@H](C)N(C(=O)c3ccccc3-n3nccn3)C2)ncc1Br [Example 4, methyl 5-bromo-2-{[(3R,6R)-6-methyl-1-{[2-(2H-1,2,3-triazol-2-yl)phenyl]carbon-yl}piperidin-3-yl]oxy}pyridine-4-carboxylate] | 28.9 nM | 60 nM |
| COC(=O)c1cc(O[C@@H]2CC[C@@H](C)N(C(=O)c3ccccc3-n3nccn3)C2)ncc1C [Example 11, Methyl 5-methyl-2-{[(3R,6R)-6-methyl-1-{[2-(2H-1,2,3-triazol-2-yl)phenyl]carbonyl}piperidin-3-yl]oxy}pyridine-4-carboxylate] | 31 nM | 11 nM |
| COC(=O)c1ccnc(O[C@@H]2CC[C@@H](C)N(C(=O)c3ccccc3-n3nccn3)C2)c1 [Example 1, Methyl 2-{[(3R,6R)-6-methyl-1-{[2-(2H-1,2,3-triazol-2-yl)phenyl]carbonyl}piperidin-3-yl]oxy}pyridine-4-carboxylate] | 1400 nM | 26 nM |
| COC(=O)c1ccnc(O[C@@H]2CC[C@@H](C)N(C(=O)c3ccccc3-n3nccn3)C2)c1Cl [Example 5, Methyl 3-chloro-2-{[(3R,6R)-6-methyl-1-{[2-(2H-1,2,3-triazol-2-yl)phenyl]carbonyl}piperidin-3-yl]oxy}pyridine-4-carboxylate] | 953 nM | 11 nM |
